The values that follow come from PMC6803640, “Oligomeric state, hydrodynamic properties and target recognition of human Calcium and Integrin Binding protein 2 (CIB2)” (Scientific Reports, 2019).

In data set [1] the target is T1, human CIB2 (Homo sapiens, UniProt O75838).
T1 construct: made in house
T1 sequence (O75838 1-187): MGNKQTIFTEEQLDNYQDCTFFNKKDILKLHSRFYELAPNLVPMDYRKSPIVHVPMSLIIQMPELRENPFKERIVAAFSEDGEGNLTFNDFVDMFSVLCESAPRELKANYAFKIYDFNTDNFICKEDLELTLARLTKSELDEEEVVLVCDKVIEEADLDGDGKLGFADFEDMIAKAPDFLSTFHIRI
Nature of the data set: Cross-linking (DSBU)/MALDI-TOF-MS of CIB2 with α7B peptides. It counts as binding. The procedure:
CIB2 samples were cross-linked with DSBU in the presence of peptide α7B_M or α7B_Scrb as described in ref.[14] Briefly, 10 µM CIB2 was diluted in 20 mM HEPES, pH 7.5, 1 mM DTT, 1 mM Mg^2+ and 2 mM Ca^2+ and incubated with increasing peptide concentrations (5 µM, 10 µM, and 20 µM) for 10 min at room temperature. Then, 50-fold molar excess of DSBU was added and the reactions were conducted for 20 min at room temperature. As control, CIB2 was treated with DSBU without peptide. Reactions were blocked by adding ammonium bicarbonate to a final concentration of 20 mM.
Cross-linked CIB2 samples were desalted via ZipTip C4 tips (Millipore) before MALDI-TOF-MS analysis (Ultraflex III MALDI-TOF/TOF mass spectrometer, Bruker Daltonik, Bremen) was conducted using sinapinic acid as matrix. For further details see Supplementary Methods. Baseline subtraction and spectra smoothing were performed. […]
Cross-linking reactions and Mass Spectrometry
Cross-linking reactions were performed with 10 µM CIB2 (in 20 mM HEPES pH 7.5, 150 mM KCl, 1 mM DTT, 1 mM Mg2+, 2 mM Ca2+) and increasing concentrations of peptides α7B_M and α7B_Scrb, ranging from 0.5:1 to 2:1 peptide:protein ratios. After incubating the samples for 10 minutes at room temperature, DSBU (freshly prepared solution, dissolved in neat DMSO) was added to the mixture at 50-fold molar excess compared to CIB2 concentration. As the final volume of the reaction mixture was 50 µL, 1 µL of 25 mM DSBU was added to each sample. After 20 minutes, the cross-linking reactions were quenched by adding ammonium bicarbonate to a final concentration of 20 mM. Samples were incubated for 10 minutes before SDS-PAGE analysis was performed (data not shown). Samples for MALDI-TOF-MS measurements were desalted by ZipTip C4 (Millipore) and desalted protein was eluted with 70% (v/v) acetonitrile / 1% (v/v) formic acid. Each sample was mixed with a saturated solution of sinapinic acid (in 50% (v/v) methanol / 0.1% (v/v) TFA) at 1:1 ratio and spotted onto the MALDI target. […]

The next data set concerns CIB2. The following applies: cited from earlier work. The source says:
In a recent study[8] we investigated the capability of CIB2 to bind Ca^2+ and Mg^2+ thereby switching to a functionally distinct structural state. By integrating several biochemical and biophysical techniques we could establish that in the absence of any cation CIB2 forms a molten globule state that essentially lacks tertiary structure. […] This is quite unusual for Ca^2+-sensor pro ... || The second approach (direct peptide immobilization) led to very low signals and unreproducible results and was not pursued any further. […] In spite of such differences, which might ... || Interaction with α7B occurs in the region proximal to the membrane and not close to the C-terminus of the cytosolic domain of the integrin. The recognition between CIB2 and the α7B target is kinetically favored in the presence of physiological Mg^2+ and in the absence of Ca^2+ and it might induce binding of another CIB2 molecule. […] However, CIB2 per se binds a single peptide as a monomer, and the complex could then induce CIB2 dimerization, ...

Data set [2] addresses T1, human CIB2. Nature of the data set: SPR CIB2 dimerization. It counts as binding. To be noted: amine-coupled CIB2 (130 RU and 226 RU), CIB2 92 nM – 46 μM injected; Ca^2+ and Mg^2+. An excerpt: SPR is a powerful and versatile technique to detect at real time biomolecular interactions, and it can be applied to study protein oligomerization, in particular dimerization, when care is taken to immobilize on the surface of a sensor chip low amounts of proteins under controlled conditions[27]–[29]. Two independent experiments were run following low levels of amine-coupling of CIB2 (130 RU and 226 RU, respectively) on the surface of a sensor chip. […]
by summing the volume of each residue and correcting the final volume for electrostriction as explained in Ref.4, therefore the specific volume for Rec, CaM and CIB2 were 0.712, 0.694 and 0.715 cm3/g respectively. The molecular weight used for the estimation of hydrodynamic diameter was calculated based on the effective protein sequence of each pdb file using Protein Calculator 3.4 (http://protcalc.sourceforge.net/).
Surface plasmon resonance analysis
A SensiQ Pioneer surface plasmon resonance instrument (FortéBio Pall) was employed for the investigation of the CIB2 dimerization and for the real-time monitoring of its interaction with selected peptides. For studies of on-chip CIB2 dimerization, HBS buffer (20 mM HEPES, pH 7.5, 150 mM KCl, 1 mM MgCl2, 50 µM EDTA, 0.005% Tween 20), was used both as immobilization and running buffer, with the addition of fresh 1 mM DTT just before each experiment. […]

“Also recorded” adds a separate entry of the source. Where a SMILES comes first, the peptide text is derived from it.

In the case of `CSCC[C@H](NC(=O)[C@H](CCCCN)NC(=O)[C@H](Cc1c[nH]c2ccccc12)NC(=O)[C@H](CC(C)C)NC(=O)[C@H](CC(C)C)NC(=O)[C@H](CC(C)C)NC(C)=O)C(=O)NCC(=O)N[C@@H](Cc1ccccc1)C(=O)N[C@@H](Cc1ccccc1)C(=O)N[C@@H](CCCCN)C(=O)N[C@@H](CCCNC(=N)N)C(=O)N[C@@H](C)C(=O)N[C@@H](CCCCN)C(=O)N[C@@H](Cc1c[nH]cn1)C(=O)N1CCC[C@H]1C(=O)N[C@@H](CCC(=O)O)C(N)=O` [α7B_M] (Ac-LLLWKMGFFKRAKHPE-NH2), the “1:2 CIB2/peptide complex” value on human CIB2 [1] (10 µM CIB2, 5, 10, 20 µM peptide, 50-fold DSBU, 1 mM Mg^2+, 2 mM Ca^2+) is “A weak signal”. In addition, the “CIB2/peptide complex formation, 1:1” value at human CIB2 [1] (10 µM CIB2, 5, 10, 20 µM peptide, 50-fold DSBU, 20 mM HEPES pH 7.5, 1 mM Mg^2+, 2 mM Ca^2+, room temperature) is “a 1:1 CIB2/peptide complex appears in the mass spectra”. Also, the “2:1 CIB2 and peptide complex” value on human CIB2 [1] (cross-linking experiments with DSBU, 1 mM Mg^2+, 2 mM Ca^2+) is “never observed”. In addition, the “fluorescence titration of CIB2” value with CIB2 (peptide intrinsic fluorescence) is listed as “fluorescence variation upon titration with α7B_M was much higher”.

B1: CIB2: Recombinant human CIB2, Ca^2+ and Mg^2+-binding protein (protein)
chain: T1 sequence (O75838 1-187)
modifications: left off: His tag, end not stated, cleaved
B1: the “oligomeric state by MS and XL-MS” value with human CIB2 [1] (all tested conditions, MS and XL-MS) was “remained monomeric in all tested conditions”. Besides, in the data set with human CIB2 [2], the “dimerization signal by SPR” value is recorded as “sensorgrams, except for some non-specific bulk effect; also recorded: In no case was a signal detected; also recorded: SPR did not detect dimerization”. The “CIB2:target peptide stoichiometry” value in the data set with CIB2 (fluorescence) is on record as 2:1 stoichiometry.
